Drawing on patent publication US20070287738A1, “Substituted Cyanopyridines as protein kinase inhibitors” (priority 2006, published 2007), this text covers IC50 for two compounds.

What all share (assay type): biochemical
Experiment [1] has as its target T1, purified recombinant active kinase domain of full length PKC theta (amino acids 362-706) (Homo sapiens, UniProt Q04759).
T1 construct: active kinase domain of full length PKC theta (amino acids 362-706)
The experiment can be described thus: Radioactive kinase assay for inhibition of the active kinase domain (KD) of PKCθ. The conditions noted are these: radioactive (ATP γ P33) assay, average value. The method, then: A Radioactive Kinase Assay for Inhibition of the Active Kinase Domain (KD) of PKCθ
(§1) This assay is based on the phosphorylation of a biotinylated substrate by a kinase utilizing radiolabeled ATP (ATP γ P33). The substrate was a biotinylated peptide with a sequence of biotin-FARKGSLRQ-C(O)NH2. The enzyme was purified recombinant active kinase domain of full length PKC theta (amino acids 362-706). The assay buffer was composed of 100 mM Hepes, pH7.5, 2 mM MgCl2, 20 mM β-glycerophosphate and 0.008% TritonX 100. A reaction mixture of ATP, ATP γ P33 (PerkinElmer), DTT, and the enzyme was prepared in the assay buffer and added to a 96-well polypropylene plate. The compound (diluted in DMSO in a separate 96-well polypropylene plate) was added to the reaction mixture and incubated at room temperature. Following the incubation, the peptide substrate was added to the reaction mixture to initiate the enzymatic reaction. The reaction was terminated with the addition of a stop solution (100 mM EDTA, 0.2% TritonX100, and 20 mM NaHPO4) and transferred from the assay plate to a washed streptavidin-coated 96-well scintiplate (PerkinElmer). The scintiplate was incubated at room temperature, washed in PBS with 0.1% TritonX 100, and counted in the 1450 Microbeta Trilux (Wallac, Version 2.60). Counts were recorded for each well as corrected counts per minute (CCPM). The counts were considered corrected because they were adjusted according to a P33 normalization protocol, which corrects for efficiency and background differences between the instrument detectors (software version 4.40.01).

Experiment [2] deals with T2, purified recombinant full length PKC theta (Panvera, P2996) (Homo sapiens, UniProt Q04759).
T2 construct: purified recombinant full length PKC theta (Panvera, P2996); purchased Panvera P2996
T2 sequence (Q04759 whole entry): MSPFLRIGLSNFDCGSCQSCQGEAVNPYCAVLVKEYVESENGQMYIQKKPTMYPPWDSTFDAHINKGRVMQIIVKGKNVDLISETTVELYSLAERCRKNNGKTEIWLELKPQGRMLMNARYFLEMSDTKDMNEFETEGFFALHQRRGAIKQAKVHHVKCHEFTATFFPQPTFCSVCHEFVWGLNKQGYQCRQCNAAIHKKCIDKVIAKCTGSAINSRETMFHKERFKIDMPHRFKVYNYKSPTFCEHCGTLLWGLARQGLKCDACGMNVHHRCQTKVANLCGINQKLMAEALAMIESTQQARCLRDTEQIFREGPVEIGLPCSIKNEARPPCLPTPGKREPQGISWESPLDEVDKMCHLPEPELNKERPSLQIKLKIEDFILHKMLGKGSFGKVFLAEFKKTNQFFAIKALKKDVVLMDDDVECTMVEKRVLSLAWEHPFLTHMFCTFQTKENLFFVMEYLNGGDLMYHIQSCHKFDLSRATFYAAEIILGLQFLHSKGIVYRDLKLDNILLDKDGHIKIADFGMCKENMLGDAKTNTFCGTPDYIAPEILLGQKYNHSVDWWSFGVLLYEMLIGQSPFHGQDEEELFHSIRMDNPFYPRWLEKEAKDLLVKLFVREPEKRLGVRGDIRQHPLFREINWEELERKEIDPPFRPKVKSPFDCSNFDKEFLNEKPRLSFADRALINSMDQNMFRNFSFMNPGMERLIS
The experiment can be described thus: Radioactive kinase assay for inhibition of full length (FL) PKCθ. The conditions noted are these: full length enzyme; radioactive (ATP γ P33) assay; average value. The method, then: as §1
A Radioactive Kinase Assay for Inhibition of Full Length (FL) PKCθ Inhibitors
This assay differs from what was described above in that the enzyme used was purified recombinant full length PKC theta (Panvera, P2996).

The target in experiment [3] is T3, human PKCθ full length enzyme (Homo sapiens, UniProt Q04759).
T3 construct: human PKCθ full length enzyme (Panvera Cat# P2996); purchased Panvera P2996
T3 sequence (Q04759 whole entry): as above
Kind of experiment: PKCθ IMAP assay. Particulars: full length enzyme 1 nM; ATP 6 μM; peptide 100 nM; FP readout; average value. As to the method: The materials used include the following: human PKCθ full length enzyme (Panvera Cat# P2996); substrate peptide: 5FAM-RFARKGSLRQKNV-OH (Molecular Devices, RP7032); ATP (Sigma Cat # A2383); DTT (Pierce, 20291); 5× kinase reaction buffer (Molecular Devices, R7209); 5× binding buffer A (Molecular Devices, R7282), 5× binding buffer B (Molecular Devices, R7209); IMAP Beads (Molecular Devices, R7284); and 384-well plates (Corning Costar, 3710).
The reaction buffer was prepared by diluting the 5× stock reaction buffer and adding DTT to obtain a concentration of 3.0 mM. The binding buffer was prepared by diluting the 5× binding buffer A. A master mix solution was prepared using a 90% dilution of the reaction buffer containing 2× ATP (12 uM) and 2× peptide (200 nm). Compounds were diluted in DMSO to 20× of the maximum concentration for the IC50 measurement. 27 μl of the master mix solution for each IC50 curve was added to the first column in a 384-well plate and 3 μl of 20× compound in DMSO was added to each well. The final concentration of compound was 2× and 10% DMSO. DMSO was added to the rest of the master mix to increase the concentration to 10%. 10 μl of the master mix containing 10% DMSO was added to the rest of the wells on the plate except the 2nd column. 20 μl was transferred from the first column to the 2nd column.
The compounds were serially diluted in 2:1 ratio starting from the 2nd column. A 2× (2 nM) PKCθ solution was made in the reaction buffer. 10 μl of the PKCθ solution was added to every well to achieve these final concentrations: PKCθ—1 nM; ATP—6 μM; peptide—100 nM; DMSO—5%. Samples were incubated for 25 minutes at room temperature. The binding reagent was prepared by diluting the beads in 1× binding buffer to 800:1. 50 μl of the binding reagent was added to every well and incubated for 20 minutes. FP was measured using Envision2100 (PerkinElmer Life Sciences). Wells with no ATPs and wells with no enzymes were used as controls.

T1 sequence (Q04759 362-706): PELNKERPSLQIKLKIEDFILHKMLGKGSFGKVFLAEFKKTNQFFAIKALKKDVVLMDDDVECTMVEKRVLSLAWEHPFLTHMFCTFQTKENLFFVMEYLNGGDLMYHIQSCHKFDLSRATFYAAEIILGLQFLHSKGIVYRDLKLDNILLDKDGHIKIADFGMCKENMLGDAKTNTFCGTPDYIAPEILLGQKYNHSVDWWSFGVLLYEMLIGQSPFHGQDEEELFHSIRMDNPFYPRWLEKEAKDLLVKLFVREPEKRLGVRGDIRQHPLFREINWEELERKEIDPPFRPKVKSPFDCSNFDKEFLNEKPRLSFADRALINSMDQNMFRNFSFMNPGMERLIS

As to `COc1ccc(-c2cncc(C#N)c2Nc2ccc(Cl)c(Cl)c2)cc1OC` [Compound 115, 4-[(3,4-dichlorophenyl)amino]-5-(3,4-dimethoxyphenyl)nicotinonitrile], the IC50 is 4260 nM in experiment [1] and 380 nM in experiment [2].

For `COc1cc(Nc2c(C#N)cncc2-c2ccc(OC)c(OC)c2)c(Cl)cc1Cl` [Compound 137, 4-[(2,4-dichloro-5-methoxyphenyl)amino]-5-(3,4-dimethoxyphenyl)nicotinonitrile], the 50% inhibitory concentration (IC50) in experiment [3] was 180 nM; in experiment [1], 190 nM; in experiment [2], 160 nM.
